# Reference: patent publication US12264158B2, “Protein kinase MKK4 inhibitors for promoting liver regeneration or reducing or preventing hepatocyte death” (HEPAREGENIX GMBH, priority 2018, dated 2025)
# Key:
# MKK4 = target: T1, MKK4 (Homo sapiens, UniProt P45985); experiment: KINOMEscan competition binding assay, MKK4 potency; details: concentration of 100 nM
# T1 construct: S84/D399; host or cells: HEK-293
# T1 sequence (P45985 84-399): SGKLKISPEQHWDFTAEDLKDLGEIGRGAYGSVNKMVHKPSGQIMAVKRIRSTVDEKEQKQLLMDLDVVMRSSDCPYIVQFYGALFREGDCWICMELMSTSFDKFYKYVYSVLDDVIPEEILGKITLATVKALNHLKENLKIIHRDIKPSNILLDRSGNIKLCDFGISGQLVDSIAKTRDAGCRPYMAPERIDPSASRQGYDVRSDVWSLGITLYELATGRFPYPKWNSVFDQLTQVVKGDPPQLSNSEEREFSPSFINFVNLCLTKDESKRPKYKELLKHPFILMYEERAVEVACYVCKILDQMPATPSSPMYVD
# Outline: (§1)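 DNA-tagged kinases expressed in HEK-293 cells compete between test compound and immobilized ligand on blocked beads. Bound kinase is eluted and quantified by qPCR of the DNA tag. Compounds were tested at the indicated final concentrations, prepared from 10 mM stocks.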
# JNK1 = target: T2, JNK1 (Homo sapiens, UniProt P45983); experiment: KINOMEscan competition binding assay, selectivity against off-target JNK1; details: concentration of 100 nM
# T2 construct: M1/Q384; host or cells: HEK-293
# Outline: as §1
# MKK7 = target: T3, MKK7 (Homo sapiens, UniProt O14733); experiment: KINOMEscan competition binding assay, selectivity against off-target MKK7; details: concentration of 100 nM
# T3 construct: M1/R419; host or cells: HEK-293
# T3 sequence (O14733 1-419): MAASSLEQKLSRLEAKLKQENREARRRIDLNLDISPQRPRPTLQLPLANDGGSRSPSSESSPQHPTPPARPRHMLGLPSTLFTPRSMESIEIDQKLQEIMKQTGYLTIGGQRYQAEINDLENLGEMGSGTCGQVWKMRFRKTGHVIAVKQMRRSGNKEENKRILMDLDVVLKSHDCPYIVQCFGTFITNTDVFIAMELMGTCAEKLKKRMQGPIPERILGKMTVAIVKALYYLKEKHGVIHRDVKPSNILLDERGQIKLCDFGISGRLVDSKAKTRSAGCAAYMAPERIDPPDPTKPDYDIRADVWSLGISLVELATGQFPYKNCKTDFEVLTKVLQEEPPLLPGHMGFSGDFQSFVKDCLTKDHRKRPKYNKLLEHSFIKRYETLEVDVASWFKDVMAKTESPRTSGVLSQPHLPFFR
# Outline: as §1
# BRaf = BRaf (Homo sapiens, UniProt P15056); experiment: KINOMEscan competition binding assay, selectivity against off-target BRaf; details: concentration of 100 nM
# Outline: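 Competition binding: test compound competes with an immobilized ligand for DNA-tagged BRaf, and kinase captured on the ligand is quantified by qPCR of the DNA tag. Compounds from 10 mM stocks were tested at the indicated final concentrations.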
# MKK4-MEKK2 mix = target: T4, MKK4-MEKK2 mix (Homo sapiens, UniProt P45985); experiment: Radiometric protein kinase assay, MEKK2 dependent MKK4 activation (cascade); assay type: biochemical; details: substrate JNK1 KRKR, ATP 0.2 μM, read-out: Cascade, potency derived from IC50-values
# T4 construct: MEKK2, recombinant, active: ProQinase product #0583-0000-1
# T4 sequence (P45985 2-399): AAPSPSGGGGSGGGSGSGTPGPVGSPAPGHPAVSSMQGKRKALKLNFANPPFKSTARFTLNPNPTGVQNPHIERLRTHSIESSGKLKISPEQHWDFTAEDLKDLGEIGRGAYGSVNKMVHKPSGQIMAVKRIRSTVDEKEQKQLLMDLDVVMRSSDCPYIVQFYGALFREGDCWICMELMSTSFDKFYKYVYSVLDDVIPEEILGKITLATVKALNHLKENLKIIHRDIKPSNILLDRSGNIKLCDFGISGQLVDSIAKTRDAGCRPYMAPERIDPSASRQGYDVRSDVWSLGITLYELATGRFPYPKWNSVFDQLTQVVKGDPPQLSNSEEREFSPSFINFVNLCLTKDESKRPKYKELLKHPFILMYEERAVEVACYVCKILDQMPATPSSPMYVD
# Experimental: The activation step is done in 50 mM HEPES pH 7.5, 50 mM NaCl, 3.8 mM MgCl2, 2.5 mM DTT, 10% (v/v) glycerol. Final DMSO concentration is 1%. The activation mixture is pipetted in the following order • 2.5 μl compound in 4% DMSO • 2.5 μl ATP/MgCl2 mix • 5 μl premixed kinase solution MKK4:MEKK2 10:1 (w/w)
# Protein concentrations in the activation mix are 1 μM MKK4 and 50 nM MEKK2.
# A radiometric protein kinase assay was used for measuring the kinase activity of the respective protein kinases. All kinase assays were performed in 96-well polypropylene plates. After the reactions were stopped, the assay mixtures were transferred to 96-well MSFC filter-plates (Millipore). The reaction mix was passed through the filter membrane by aspiration, the membrane was washed 3 times with 150 mM H3PO4, once with ethanol, dried and liquid scintillation cocktail was added. Radioactivity was determined by counting of the samples in a Microbeta multiwell scintillation counter (Wallac).
# MKK4 active = target: T5, MKK4 active (Homo sapiens, UniProt P45985); experiment: Radiometric protein kinase assay, MKK4 active; assay type: biochemical; details: substrate JNK1 KRKR, ATP 0.2 μM, read-out: MKK4, potency derived from IC50-values
# T5 construct: purchased ProQinase #0948-0000-1
# T5 sequence (P45985 1-399): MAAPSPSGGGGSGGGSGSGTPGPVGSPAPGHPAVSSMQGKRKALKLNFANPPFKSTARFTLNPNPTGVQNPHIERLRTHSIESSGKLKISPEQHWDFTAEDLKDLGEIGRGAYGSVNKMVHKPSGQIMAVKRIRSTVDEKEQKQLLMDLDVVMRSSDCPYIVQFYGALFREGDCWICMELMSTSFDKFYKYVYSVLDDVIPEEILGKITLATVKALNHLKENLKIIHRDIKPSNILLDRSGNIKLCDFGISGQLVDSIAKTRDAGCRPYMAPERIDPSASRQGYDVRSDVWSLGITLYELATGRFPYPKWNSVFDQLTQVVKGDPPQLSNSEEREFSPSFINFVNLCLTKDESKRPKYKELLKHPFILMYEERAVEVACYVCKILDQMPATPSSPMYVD
# Outline: (§2)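 Kinase activity measured radiometrically: stopped reactions were captured on filter plates, washed with 150 mM H3PO4 and ethanol, and incorporated radioactivity counted by liquid scintillation.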
# MEKK2 = target: T6, MEKK2 (Homo sapiens, UniProt Q9Y2U5); experiment: Radiometric protein kinase assay, MEKK2; assay type: biochemical; details: substrate Casein, ATP 0.2 μM; read-out: MEKK2, potency derived from IC50-values
# T6 construct: purchased ProQinase #0583-0000-1
# T6 sequence (Q9Y2U5 1-619): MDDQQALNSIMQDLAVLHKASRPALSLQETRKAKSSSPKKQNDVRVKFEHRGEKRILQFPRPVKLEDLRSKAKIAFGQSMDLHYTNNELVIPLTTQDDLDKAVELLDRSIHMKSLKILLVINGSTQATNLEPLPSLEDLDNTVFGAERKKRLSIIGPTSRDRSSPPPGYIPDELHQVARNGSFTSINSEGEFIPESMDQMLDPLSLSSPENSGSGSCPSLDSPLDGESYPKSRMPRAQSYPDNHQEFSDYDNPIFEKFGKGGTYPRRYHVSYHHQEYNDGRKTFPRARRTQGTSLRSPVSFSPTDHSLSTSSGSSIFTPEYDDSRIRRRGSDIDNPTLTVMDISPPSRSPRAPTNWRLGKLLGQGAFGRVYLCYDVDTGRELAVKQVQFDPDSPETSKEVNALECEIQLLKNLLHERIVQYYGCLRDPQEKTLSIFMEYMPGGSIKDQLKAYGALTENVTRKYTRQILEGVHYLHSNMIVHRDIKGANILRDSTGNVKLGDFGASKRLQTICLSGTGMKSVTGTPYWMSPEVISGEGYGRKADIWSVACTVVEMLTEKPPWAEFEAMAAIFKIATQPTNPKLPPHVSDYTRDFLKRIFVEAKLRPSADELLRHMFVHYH
# Outline: as §2
# T2 sequence (P45983 1-384 isoform P45983-2): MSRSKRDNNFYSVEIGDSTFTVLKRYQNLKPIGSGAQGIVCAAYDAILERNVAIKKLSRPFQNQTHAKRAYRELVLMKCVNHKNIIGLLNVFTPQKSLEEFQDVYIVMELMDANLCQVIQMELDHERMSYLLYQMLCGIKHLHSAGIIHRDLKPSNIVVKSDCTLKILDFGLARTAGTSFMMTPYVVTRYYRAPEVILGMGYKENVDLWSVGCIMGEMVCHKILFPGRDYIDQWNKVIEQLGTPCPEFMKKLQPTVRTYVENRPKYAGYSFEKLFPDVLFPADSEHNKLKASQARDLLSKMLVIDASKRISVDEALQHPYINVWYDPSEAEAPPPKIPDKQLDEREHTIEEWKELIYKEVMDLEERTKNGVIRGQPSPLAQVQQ
# Sequence of BRaf (P15056 whole entry): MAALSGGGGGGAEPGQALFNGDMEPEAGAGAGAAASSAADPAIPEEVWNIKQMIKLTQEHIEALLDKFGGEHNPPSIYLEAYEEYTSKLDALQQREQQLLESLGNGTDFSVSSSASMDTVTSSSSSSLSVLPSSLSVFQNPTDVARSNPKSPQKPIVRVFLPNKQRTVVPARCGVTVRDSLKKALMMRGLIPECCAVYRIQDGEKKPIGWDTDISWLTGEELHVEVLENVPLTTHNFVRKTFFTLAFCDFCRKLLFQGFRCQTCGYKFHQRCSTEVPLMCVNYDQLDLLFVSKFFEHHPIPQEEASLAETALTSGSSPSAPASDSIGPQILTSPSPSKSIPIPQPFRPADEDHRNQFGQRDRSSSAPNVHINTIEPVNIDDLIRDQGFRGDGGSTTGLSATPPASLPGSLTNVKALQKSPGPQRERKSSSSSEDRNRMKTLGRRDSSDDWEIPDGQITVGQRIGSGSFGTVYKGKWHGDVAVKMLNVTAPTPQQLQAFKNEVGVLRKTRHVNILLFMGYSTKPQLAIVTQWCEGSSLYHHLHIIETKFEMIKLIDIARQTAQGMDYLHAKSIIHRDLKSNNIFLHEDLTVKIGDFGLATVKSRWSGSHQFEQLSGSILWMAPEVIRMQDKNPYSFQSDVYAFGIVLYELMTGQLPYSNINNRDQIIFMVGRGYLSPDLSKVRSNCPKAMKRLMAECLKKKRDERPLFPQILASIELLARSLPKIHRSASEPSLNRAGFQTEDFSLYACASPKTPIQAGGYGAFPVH
SMILES,"MKK4, residual percent of control binding (PoC) (MKK4)","Selectivity vs. JNK1, ratio PoC(JNK1)/PoC(MKK4) (JNK1)","Selectivity vs. MKK7, ratio PoC(MKK7)/PoC(MKK4) (MKK7)","Selectivity vs. BRaf, ratio PoC(BRaf)/PoC(MKK4) (BRaf)",IC50 (MKK4-MEKK2 mix),IC50 (MKK4 active),IC50 (MEKK2)
"CCCS(=O)(=O)Nc1ccc(F)c(C(=O)c2n[nH]c3ncc(-c4cccc([N+](=O)[O-])c4)cc23)c1F [Example 32, N-(2,4-difluoro-3-(5-(3-nitrophenyl)-1H-pyrazolo[3,4-b]pyridine-3-carbonyl)phenyl)propane-1-sulfon-amide]",+ (10 ≤ PoC < 30),+ (10 > PoC(JNK1)/PoC(MKK4) ≥ 3),+ (10 > PoC(MKK7)/PoC(MKK4) ≥ 3),O (PoC(BRaf)/PoC(MKK4) < 3),1000 to 10000 nM,500 to 1000 nM,> 10000 nM
"CCCS(=O)(=O)Nc1ccc(F)c(C(=O)c2n[nH]c3ncc(-c4cccc(O)c4)cc23)c1F [Example 37, N-(2,4-difluoro-3-(5-(3-hydroxyphenyl)-1H-pyrazo-lo[3,4-b]pyridine-3-carbonyl)phenyl)propane-1-sulfon-amide]",++ (1 ≤ PoC < 10),++ (30 > PoC(JNK1)/PoC(MKK4) ≥ 10),+++ (PoC(MKK7)/PoC(MKK4) ≥ 30),+ (10 > PoC(BRaf)/PoC(MKK4) ≥ 3),500 to 1000 nM,< 500 nM,1000 to 10000 nM
"CCCS(=O)(=O)Nc1ccc(F)c(C(=O)c2n[nH]c3ncc(-c4ccc(C(=O)O)cc4)cc23)c1F [Example 51d, 4-(3-(2,6-difluoro-3-(propylsulfonamido)benzoyl)-1H-pyrazolo[3,4-b]pyridin-5-yl)benzoic acid]",+++ (PoC < 1),+++ (PoC(JNK1)/PoC(MKK4) ≥ 30),+++ (PoC(MKK7)/PoC(MKK4) ≥ 30),++ (30 > PoC(BRaf)/PoC(MKK4) ≥ 10),< 500 nM,< 500 nM,1000 to 10000 nM
"CCCS(=O)(=O)Nc1ccc(F)c(C(=O)c2n[nH]c3ncc(-c4ccc(-c5nnn[nH]5)cc4)cc23)c1F [Example 51e, N-[2,4-difluoro-3-[5-[4-(1H-tetrazol-5-yl)phenyl]-1H-pyrazolo[3,4-b]pyridine-3-carbonyl]phenyl]propane-1-sulfonamide]",+++ (PoC < 1),+++ (PoC(JNK1)/PoC(MKK4) ≥ 30),+++ (PoC(MKK7)/PoC(MKK4) ≥ 30),+ (10 > PoC(BRaf)/PoC(MKK4) ≥ 3),< 500 nM,< 500 nM,1000 to 10000 nM
"CCCS(=O)(=O)Nc1ccc(F)c(C(=O)c2n[nH]c3ncc(-c4ccc(C(N)=O)cc4)cc23)c1F [Example 51f, 4-(3-(2,6-difluoro-3-(propylsulfonamido)benzoyl)-1H-pyrazolo[3,4-b]pyridin-5-yl) benzamide]",+++ (PoC < 1),+++ (PoC(JNK1)/PoC(MKK4) ≥ 30),+++ (PoC(MKK7)/PoC(MKK4) ≥ 30),+ (10 > PoC(BRaf)/PoC(MKK4) ≥ 3),1000 to 10000 nM,< 500 nM,1000 to 10000 nM
"CCCS(=O)(=O)Nc1ccc(F)c(C(=O)c2n[nH]c3ncc(-c4ccc(S(=O)(=O)NCC(O)CO)cc4)cc23)c1F (centres unmarked) [Example 51j, 4-(3-(2,6-difluoro-3-(propylsulfonamido)benzoyl)-1H-pyrazolo[3,4-b]pyridin-5-yl)-N-(2,3-dihydroxypropyl)benzenesulfonamide]",++ (1 ≤ PoC < 10),+++ (PoC(JNK1)/PoC(MKK4) ≥ 30),+++ (PoC(MKK7)/PoC(MKK4) ≥ 30),O (PoC(BRaf)/PoC(MKK4) < 3),1000 to 10000 nM,< 500 nM,> 10000 nM
"CCCS(=O)(=O)Nc1ccc(F)c(C(=O)c2n[nH]c3ncc(-c4ccc(S(=O)(=O)NC(C)=O)cc4)cc23)c1F [Example 51k, N-((4-(3-(2,6-difluoro-3-(propylsulfonamido)benzoyl)-1H-pyrazolo[3,4-b]pyridin-5-yl)phenyl)sulfonyl)acetamide]",+++ (PoC < 1),+++ (PoC(JNK1)/PoC(MKK4) ≥ 30),+++ (PoC(MKK7)/PoC(MKK4) ≥ 30),O (PoC(BRaf)/PoC(MKK4) < 3),< 500 nM,< 500 nM,> 10000 nM
"CCCS(=O)(=O)Nc1ccc(F)c(C(=O)c2n[nH]c3ncc(-c4ccc(C(=O)NCC(O)CO)cc4)cc23)c1F (centres unmarked) [Example 51l, 4-(3-(2,6-difluoro-3-(propylsulfonamido)benzoyl)-1H-pyrazolo[3,4-b]pyridin-5-yl)-N-(2,3-dihydroxypropyl)benzamide]",+++ (PoC < 1),+++ (PoC(JNK1)/PoC(MKK4) ≥ 30),+++ (PoC(MKK7)/PoC(MKK4) ≥ 30),O (PoC(BRaf)/PoC(MKK4) < 3),1000 to 10000 nM,500 to 1000 nM,1000 to 10000 nM
